Reference: patent US20260216057A1, “PHARMACEUTICAL COMPOSITIONS FOR HERPES VIRUS” (priority 2022, published 2026)

Tests used:
[1] = Example 1: pritelivir aqueous suspension SC PK study in rat; type: in vivo, male Sprague Dawley rats; details: aqueous suspension (dihydrate), 33.33 mg/kg and 166.67 mg/kg, both dosing levels
Method: (§1) The LC-MS methodology and conditions used to analyse pritelivir in plasma samples from the PK studies described in Examples 1 to 5 are provided in Table 1.
An aqueous suspension of crystalline pritelivir free base (dihydrate) in a 0.9% NaCl+0.5% polysorbate 80 vehicle at concentrations of 10.0 mg/mL and 50.0 mg/mL was prepared as follows: • 1) Vehicle (0.9% w/w NaCl and 0.5% w/w polysorbate 80) was prepared by dissolving NaCl and polysorbate 80 in water. • 2) Appropriate amount of crystalline pritelivir free base (dihydrate) was weighed and added to the vehicle. • 3) Mixture was vortexed for 1 minute, stirred for 10 minutes and then sonicated for 15 minutes. • 4) The final dosing formulation was a homogenous white cloudy suspension.
Male Sprague Dawley (SD) rats with ~300 g body weight (ages 6-8 weeks) were used for the pharmacokinetic study. The animals had free access to food and water. The pritelivir suspensions described above were administered via sub-cutaneous injection to each animal group (n=3) with a dosing volume of 3.33 mL/kg to achieve 33.33 mg/kg and 166.67 mg/kg doses.
(§2) At each time point, approximately 200 μL whole blood was collected in a K2EDTA tube via the jugular vein. Blood samples were put on ice and centrifuged at 2000 g for 5 min to obtain a plasma sample within 15 minutes. Plasma samples were stored at approximately −70° C. until analyzed by LC-MS.

[2] = Example 3: pritelivir aqueous suspension SC PK study in monkey; type: in vivo, male cynomolgus monkeys; details: aqueous suspension (dihydrate), 10 mg/kg
Method: as §1
An aqueous suspension of crystalline pritelivir free base (dihydrate) in a 0.9% NaCl+0.5% polysorbate 80 vehicle at a concentration of 3.0 mg/mL was prepared as follows: • 1) Vehicle (0.9% w/w NaCl and 0.5% w/w polysorbate 80) was prepared by dissolving NaCl and polysorbate 80 in water. • 2) Appropriate amount of crystalline pritelivir free base (dihydrate) was weighed and added to the vehicle. • 3) Mixture was stirred for 15 minutes, then vortexed for 1 minute and then sonicated for 10 minutes. • 4) The final dosing formulation was a homogenous white cloudy suspension.
Male non-naïve Cyno Monkeys with −5 kg body weight was used for the monkey PK study. The animals had free access to food and water. The prepared suspension was administered via subcutaneous injection to each animal group (n=3) with a dosing volume of 3.33 mL/kg to achieve a 10 mg/kg dose.
At each time point, approximately 0.5 mL whole blood was collected via the cephalic vein into K2EDTA tubes. Blood samples were put on to ice and centrifuged at 2000 g for 5 min to obtain plasma sample within 15 minutes. Plasma samples were stored at approximately −70° C. until analyzed by LC-MS.

[3] = tested on: recurrent genital HSV-2; details: 28 days daily oral dosing; pritelivir 100 mg (after 400 mg loading dose), valacyclovir 500 mg; cited from earlier work
[4] = Example 10: Compound 1 (Form A) aqueous suspension SC PK study in rat; type: in vivo, male Sprague Dawley rats; details: 10 mg/kg
Method: An aqueous suspension of Compound 1 free form (crystalline Form A) in a 0.9% NaCl+0.5% polysorbate 80 vehicle at a concentration of 3 mg/mL was prepared as follows: • 1) Vehicle (0.9% w/w NaCl and 0.5% w/w polysorbate 80) was prepared by dissolving NaCl and polysorbate 80 in water. • 2) An appropriate amount of Compound 1 free form was weighed and added to the vehicle. • 3) The mixture was vortexed for 1 minute, stirred for 10 minutes and then sonicated for 15 minutes. • 4) The final dosing formulation was a homogenous white cloudy suspension.
Male Sprague Dawley (SD) rats with ~230-250 g body weight (ages 6-8 weeks) were used for the pharmacokinetic study. The animals had free access to food and water.
The Compound 1 suspension described above was administered via sub-cutaneous injection to each animal group (n=3) with a dosing volume of 3.33 mL/kg to achieve a 10 mg/kg dose.
as §2

[5] = Example 13: Compound 1 IV PK study in rat; type: in vivo, male Sprague Dawley rats; details: male, Sprague Dawley, plasma, 1 mg/kg, read-out: Rat t1/2 (converted)
Method: The LC-MS methodology and conditions used to analyse Compound 1 in plasma samples from the intra-venous injection PK studies (Example 13) are described in Tables 5 to 7. A 0.2 mg/mL solution of Compound 1 in 10% NMP, 10% Solutol HS15 and 80% Saline was prepared as follows: • 1) A stock solution of Compound 1 in NMP was prepared. • 2) An equal volume of the Compound 1 stock solution and Solutol HS15 were combined and mixed. • 3) The above solution was diluted with normal saline to reach the target concentration. The final formulation was a clear solution. Male Sprague Dawley (SD) rats with 230-250 g body weight, ages 6-8 weeks, were used for the rat pharmacokinetic study. The animals had free access to food and water. The Compound 1 solution described above was administered via intravenous injection to animals (n=3) to achieve a 1.0 mg/kg dose. At each time point, approximately 200 μL whole blood was collected in a K2EDTA tubes. Blood samples were put on ice and centrifuged at 2000 g for 5 min to obtain a plasma sample within 15 minutes. Plasma samples were stored at approximately −70° C. until analyzed by LC-MS according to the method described above.

[6] = Example 13: Compound 1 IV PK study in dog; type: in vivo, male non-naïve Beagle dogs; details: male, beagle, plasma, 0.15 mg/kg, read-out: Dog t1/2 (converted)
Method: The LC-MS methodology and conditions used to analyse Compound 1 in plasma samples from the intra-venous injection PK studies (Example 13) are described in Tables 5 to 7. A 0.15 mg/mL solution of Compound 1 in 10% DMSO, 10% Solutol HS15 and 80% Saline was prepared as follows: • 1) A stock solution of Compound 1 in DMSO was prepared. • 2) An equal volume of the Compound 1 stock solution and Solutol HS15 were combined and mixed. • 3) The above solution was diluted with normal saline to reach the target concentration. The final formulation was a clear solution. Male non-naïve beagles were used for the dog PK study. The animals had free access to food and water. […] At each time point, approximately 0.5 mL of whole blood was collected into K2EDTA tubes. Blood samples were put on ice and centrifuged at 2000 g for 5 min to obtain plasma samples within 15 minutes. Plasma samples were stored at approximately −70° C. until analyzed by LC-MS.

[7] = Allometric scaling of multi-species PK data to human

| prolonged exposure out to (length of the study) [1] | prolonged exposure out to (length of the study) [2] | prolonged exposure out to [4] | variability in plasma concentrations [4] | half-life [5] | half-life [6] | predicted human clearance [7] | SMILES | HSV shedding, % of genital swabs analysed [3] |
| --- | --- | --- | --- | --- | --- | --- | --- | --- |
| at least 720 hours | at least 456 hours | – | – | – | – | – | Cc1nc(N(C)C(=O)Cc2ccc(-c3ccccn3)cc2)sc1S(N)(=O)=O [pritelivir, N-methyl-N-(4-methyl-5-sulfamoyl-1,3-thiazol-2-yl)-2-[4-(pyridin-2-yl)phenyl]acetamide] | 2.4% |
| – | – | at least 58 days | low | 22 h | 34.9 h | 0.06 L/h | Cc1nc(N2CCCN(c3ccc(-c4cc(F)ccc4F)cc3)C2=O)sc1S(N)(=O)=O [Compound 1, 2-(3-(2′,5′-difluoro-[1,1′-biphenyl]-4-yl)-2-oxotetrahydropyrimidin-1(2H)-yl)-4-methylthiazole-5-sulfonamide] | – |
